Measurements as given in US5532227A, “Tetracyclines including non-antimicrobial chemically-modified tetracyclines inhibit excessive glycosylation of different types of collagen and other proteins during diabetes” (The Research Foundation of State University of New York, priority 1994, dated 1996).

Experiments:
[1] = Wong et al. 1984, cited from earlier work
skin collagen [2] = assay: Glycosylation of diabetic rat skin collagen (Example V, Table IV); type: in vivo, Sprague-Dawley rat; settings: 5 mg daily oral gavage, 21 days; for mM Fructosamine/mg protein (Mean ± SE): NDC 0.027, untreated diabetic 0.377; for Reduction of glycosylation in treated diabetics (%): vs untreated diabetic control
Procedure: (§1) All animals were weighed weekly.
The subcutaneous muscle layer was removed leaving essentially the dermis. The dermis (skin connective tissue) samples were minced, then homogenized in phosphate buffered saline (4° C.). Following centrifugation (at 9000 rpm, 4° C., 30 min.) of the homogenates, the supernatants were discarded. The pellets were repeatedly washed, then resuspended and extracted at 4° C. overnight in chloroform/methanol to remove lipids. The de-lipidized tissue samples were then washed in 100% methanol, then in 50% methanol. Following the methanol washes, the samples were washed with HEPES buffer (pH 7.4). The skin connective tissue samples (100 mg of each sample) were incubated at 37° C. (24 hours) with chromatographically-purified bacterial collagenase. After 24 hours the reaction mixture was centrifuged at 7000 rpm, room temperature for 30 minutes. Following centrifugation, the supernatants containing the digested collagen were collected. Aliquots of the supernatants were analyzed for glycosylated collagen using a modification of the Isolab Glyco-PROBE™ GSP assay kit. The assay is designed to measure glucose bound to protein which was then converted by Amadori rearrangement to fructosamine. For purposes of the present invention, the sample total protein was increased to compensate for low levels of glycosylated collagen compared to glycosylated serum proteins.

collagenase [3] = assay: Collagenase activity in skin of diabetic rats (Example V, FIG. 8); type: in vivo, Sprague-Dawley rat; settings: 5 mg daily oral gavage, 21 days; p<0.001 for normalization
Procedure: as §1
In particular, all dissection and extraction procedures were carried out at 4° C. unless otherwise indicated. For MMP analysis, the tissues were minced, weighed, extracted, and the extracts partially purified by ammonium sulfate precipitation using techniques described previously (Ramamurthy and Golub, J. Periodontal Res. 17, 455, (1983)). The extracts of the diseased tissue were then concentrated 5-fold and aliquots were incubated (a) with [^3 H-methyl] gelatin (denatured type I rat skin collagen ) at 37° C. for 4hours to measure gelatinase activity. The undigested gelatin was precipitated with trichloroacetic acid, and after centrifugation, aliquots of the degradation products in the supernatants were measured in a liquid scintillation spectrometer (in addition to this lysis assay, the different molecular forms of gelatinase were assessed by zymography); (b) with [^3 H-methyl] collagen for 18 hours at 27° C. and the collagen degradation fragments in the supernatants were analyzed with a liquid scintillation spectrometer to measure collagenase activity. In addition, the radiolabeled collagen components (α chains) and degradation fragments (α^A) were assessed by a combination of SDS-polyacrylamide gel electrophoresis and fluorography as described previously (Golub et al. J. Periodontal Res. 20, 12 (1985).

gelatinase = assay: Gelatinase activity in skin of diabetic rats (Example V, FIG. 9); type: in vivo, Sprague-Dawley rat; settings: 5 mg daily oral gavage, 21 days; p<0.001 for normalization
Procedure: as §1
In particular, all dissection and extraction procedures were carried out at 4° C. unless otherwise indicated. […] The extracts of the diseased tissue were then concentrated 5-fold and aliquots were incubated (a) with [^3 H-methyl] gelatin (denatured type I rat skin collagen ) at 37° C. for 4hours to measure gelatinase activity. The undigested gelatin was precipitated with trichloroacetic acid, and after centrifugation, aliquots of the degradation products in the supernatants were measured in a liquid scintillation spectrometer (in addition to this lysis assay, the different molecular forms of gelatinase were assessed by zymography); (b) with [^3 H-methyl] collagen for 18 hours at 27° C. and the collagen degradation fragments in the supernatants were analyzed with a liquid scintillation spectrometer to measure collagenase activity.

serum proteins [4] = assay: Serum fructosamine (glycosylated serum protein), 14 weeks doxycycline (Example II, Table III); type: in vivo; settings: 2 mg/rat/day oral
Procedure: Three groups of rats were established: a non-diabetic control group, an untreated streptozotocin-diabetic group and a streptozotocin-diabetic group treated orally with 2 mg doxycycline/rat/day over the 14-week time period. At the end of the 14 weeks, blood samples were collected from each rat arid the serum was measured for glycosylated protein using an assay which is based on the ability of glucose to non-enzymatically bind to proteins by a ketoamine crosslink to form fructosamine. During the assay, the glucose bound to the protein through a ketoamine chemical bond reduces a tetrazolium dye under alkaline conditions producing a color change which is measured spectrophotometrically. Armbruster, Clin. Chem., 33: 2153-2163 (1987). A fructosamine assay kit is available from Isolab Inc., Akron, Ohio 44321.
In particular, the serum samples were centrifuged to remove lipids. The clarified serum samples were treated with a reagent to remove ascorbic acid and other interfering substances. The treated Serum samples were then incubated for a fixed period of time, with the fructosamine-bicarbonate reagent (tetrazolium salt), and absorbance was measured at a wavelength of 500 nm in a spectrophotometer. The data was analyzed statistically.

serum protein = assay: Glycosylated serum proteins in diabetic rats (Example IV, FIG. 5); type: in vivo, Sprague-Dawley rat; settings: 5 mg daily oral gavage, 21 days; effect p<0.05
Source text: (Control vs. Diabetic p<0.01, Diabetic vs. Diabetic treated with Doxycycline p<0.05, Diabetic vs. Diabetic treated with CMT-1 (4-dedimethyiaminotetracycline) p<0.05).
(§2) Sixteen adult male sprague-Dawley rats, each weighing approximately 350 grams, were divided into four groups 0f four animals per group.

diabetic rats = settings: Golub et al. 1990; cited from earlier work
skin collagen [5] = assay: Glycosylation of skin collagen in diabetic rats, anthrone method (Example IV, FIG. 6); type: in vivo, Sprague-Dawley rat; settings: 5 mg daily oral gavage, 21 days; effect p<0.05
Procedure: as §2
In addition, the entire skin was dissected from each rat. Samples containing 100mg of each skin were suspended in a Tris-HCl buffer containing 5mM CaCl2 and chromatographically-purified bacterial collagenase and incubated at 37° C. for 4 hours. Following incubation all samples were centrifugated at 35,000×G and the supernatants containing the skin collagen fragments were collected. The skin digest supernatants were analyzed for (1) carbohydrate-attached-to-collagen by the anthrone method, as described by Halhoul and Kleinberg ([…]) Anal. Biochem. 50: 337-343 and (2) total protein using the BioRad Assay, BioRad Chemical Division, Richmond, Calif.

collagen = settings: diabetes in rats; Brownlee et al. 1986; cited from earlier work
collagenase [6] = settings: in vitro (Golub, et al., 1991) and in vivo; cited from earlier work
serum proteins [7] = assay: Glycosylated serum protein (GSP) in diabetic rats (Example V, FIG. 7); settings: 5 mg daily oral gavage, 21 days; vs untreated diabetics, p<0.005
Procedure: Fifty-two adult male Sprague-Dawley rats were divided into eight groups, each consisting of 5-7 animals. Diabetes was induced by I.V. administration of streptozotocin in all rats, except the non-diabetic control group (7 rats). […] All animals were weighed weekly. Following general anesthesia by halothane inhalation, blood samples were collected by cardiac puncture. Blood samples were analyzed for serum glucose and glycosylated serum protein (GSP) levels. As previously mentioned, glycosylated serum protein levels were measured using the Isolab Glyco-PROBE™ GSP (glycosylated serum protein) assay kit.

[8] = system: streptozotocin-diabetic rats; assay: Proteinuria: urine protein excretion in diabetic rats (Example III, FIG. 4); type: in vivo, rat; settings: 4 weeks
Procedure: Example III was carried out to determine the effect of tetracycline therapy on proteinuria, a parameter of renal damage, in diabetic rats.
(§3) Streptozotocin-diabetic rats were treated by the daily oral administration of 20 mg minocycline/rat/day over a 4-week period. At the end of the protocol, 24-hour urines were collected to measure protein excretion.

[9] = system: streptozotocin-diabetic rats; assay: Other signs of diabetes (hyperglycemia, glucosuria, polyuria) in diabetic rats (Example III); type: in vivo, rat
Procedure: as §3

[10] = White, Lancet 1989; cited from earlier work

## CC(C)Cc1ccc(C(C)C(=O)O)cc1 (stereo not drawn) [ibuprofen]
[1]; combination study with tetracycline
  reduction of resulting inflammation in acne vulgaris: useful in reducing the resulting inflammation

## NC(=O)C1=C(O)C2(O)C(=O)C3=C(O)c4c(O)cccc4CC3CC2CC1=O (stereo not drawn) [CMT-3, 6-demethyl-6-deoxy-4-dedimethylaminotetracycline]
Skin collagen [2]
  mM Fructosamine/mg protein (Mean ± SE): 0.186 ± 0.048 mM Fructosamine/mg protein
  Reduction of glycosylation in treated diabetics (%): 50.7%

## C[C@H]1c2cccc(O)c2C(O)=C2C(=O)[C@]3(O)C(O)=C(C(N)=O)C(=O)C[C@@H]3[C@@H](O)[C@@H]21 [CMT-8, 6α-deoxy-5-hydroxy-4-dedimethylaminodoxycycline]
Skin collagen [2]
  mM Fructosamine/mg protein (Mean ± SE): 0.118 ± 0.090 mM Fructosamine/mg protein
  Reduction of glycosylation in treated diabetics (%): 68.7%

## C[C@H]1c2cccc(O)c2C(O)=C2C(=O)[C@]3(O)C(O)=C(C(N)=O)C(=O)[C@@H](N(C)C)[C@@H]3[C@@H](O)[C@@H]21 [Doxycycline, reference compound]
Collagenase [3]
  collagenase activity in the skin: normalized
gelatinase
  gelatinase activity in the skin: normalized
Skin collagen [2]
  mM Fructosamine/mg protein (Mean ± SE): 0.244 ± 0.050 mM Fructosamine/mg protein
  Reduction of glycosylation in treated diabetics (%): 35.3%
Serum proteins [4]; mean ± standard error, non-diabetic 1.33, untreated diabetics 3.82
  Serum Fructosamine Concentration: 3.23 ± 0.20
Serum proteins [4]; vs untreated diabetics, p<0.05
  fructosamine levels in the serum proteins: significantly (p<0.05) reduced
Serum protein
  fructosamine attached to serum protein (glycosylated serum protein): returned both of these parameters of abnormal glycosylation to essentially normal levels
Diabetic rats
  severity of hyperglycemia: does not reduce the severity of hyperglycemia in diabetic rats
Skin collagen [5]
  glycosylation of skin collagen: returned both of these parameters of abnormal glycosylation to essentially normal levels

## CN(C)C1C(=O)C(C(N)=O)=C(O)C2(O)C(=O)C3=C(O)c4c(O)cccc4C(C)(O)C3CC12 (stereo not drawn) [tetracycline]
[1]; combination study with ibuprofen
  effectiveness against acne vulgaris: effective agent against acne vulgaris

## CC1(O)c2cccc(O)c2C(O)=C2C(=O)C3C(O)=C(C(N)=O)C(=O)CC3CC21 (stereo not drawn) [CMT-7, 12a-deoxy-4-deoxy-4-dedimethylaminotetracycline]
Skin collagen [2]
  mM Fructosamine/mg protein (Mean ± SE): 0.141 ± 0.086 mM Fructosamine/mg protein
  Reduction of glycosylation in treated diabetics (%): 62.6%

## N=C(N)NN [aminoguanidine]
collagen
  inhibition of nonenzymatic glucose-derived collagen crosslinking: effective inhibitor

## tetracycline pyrazole [CMT-5]
Collagenase [3]
  collagenase activity in the skin: normalized by all treatment groups (p<0.001) with the exception of CMT 5
Collagenase [6]
  anticollagenase properties: lost its anticollagenase properties
gelatinase
  gelatinase activity in the skin: normalized by all treatment groups (p<0.001) with the exception of CMT 5
Skin collagen [2]
  mM Fructosamine/mg protein (Mean ± SE): 0.121 ± 0.050 mM Fructosamine/mg protein
  Reduction of glycosylation in treated diabetics (%): 69.9%
Serum proteins [7]
  GSP levels: substantially lower

## CN(C)c1ccc(O)c2c1C[C@H]1C[C@H]3[C@H](N(C)C)C(O)=C(C(N)=O)C(=O)[C@@]3(O)C(O)=C1C2=O [Minocycline]
[8]; 20 mg minocycline/rat/day oral, normal 48, untreated diabetics 280
  urine protein excretion: 52 mg/24 hr
[8]; 20 mg/rat/day oral
  development of proteinuria: completely prevented the development of proteinuria
[9]
  other signs of diabetes including hyperglycemia, glucosuria and polyuria: Neither treatment with minocycline nor CMT-1 reduced the other signs of diabetes
[10]
  effectiveness in dystrophic epidermolysis bullosa: effective in treating dystrophic epidermolysis bullosa

## CC1(O)c2c(Cl)ccc(O)c2C(=O)C2=C(O)C3(O)C(=O)C(C(N)=O)=C(O)CC3CC21 (stereo not drawn) [CMT-4, 7-chloro-4-dedimethylaminotetracycline]
Skin collagen [2]
  mM Fructosamine/mg protein (Mean ± SE): 0.236 ± 0.026 mM Fructosamine/mg protein
  Reduction of glycosylation in treated diabetics (%): 37.4%
